The target in data set [1] is T1, human metastin receptor hOT7T175 (Homo sapiens, UniProt Q969F8, L364H).
T1 construct: encoding the entire length of human metastin receptor hOT7T175; expressed in transfected cells; host or cells: CHO/dhFr- cells (ATCC #CRL-9096) stably transfected with pAKKO-hOT7T175; clone h175-16 was used as whole cells for FLIPR
Kind of data set: binding inhibiting activity: 125I-metastin (40-54) binding to cell membrane fraction of h175 KB34 cells. Conditions: room temperature 60 minutes, read-out: binding inhibiting activity, represented by the IC50 value. Here is the method:
cDNA fragments (SEQ ID NO: 2) encoding the entire length of human metastin receptor hOT7T175 were incorporated into expression vector pAKKO1.11H to produce animal cell expression plasmids pAKKO-hOT7T175. CHO/dhFr-cells (ATCC, #CRL-9096) were seeded onto 6 cm culture dishes (Becton Dickinson) at a density of 0.3×10^6 cells/dish, and cultured in the conditions of 48 hours, 37° C. and 5% CO2. 5 μg pAKKO-hOT7T175 plasmid DNA was transfected to the resultant cells by a known method (described in Example 3 of WO 00/24890) using the Cellphect Transfection Kit (Amersham, #27-9268-01). The DNA-transfected cells were cultured in the Dulbecco's modified Eagle medium (DMEM) (Sigma, #D6046) containing 10% dialyzed FBS (Biowest, #S180D), 1× Non-Essential Amino Acid (Invitrogen, #11140-050) and 50 μg/ml Gentamycin (Invitrogen, #15750-060; and cell strains stably expressing the plasmid genes were selected. The obtained 41 clones were treated with the FLIPR assay (in accordance with the method described in Example 3 of WO 00/24890), and the reactivity to the human metastin […] (Nos. 40 to 54 of the human metastin sequence; Peptide Institute, Inc., #4389-v) was evaluated. In the end, h175 KB34 cell strains were selected. By substantially the same method, h175-16 cell strains were also produced.
The h175 KB34 cells were cultured to be on the stage of 40-50% confluency using a cell factory (Nunc, #164327), and then cells were recovered in the following method.
First, the medium was disposed, and the cells were washed twice with 200 ml EDTA/PBS(−). Another 200 ml of EDTA/PBS(−) was added, and the cells were kept still for 20 minutes at room temperature until being peeled off. The cells were recovered into four 50 ml tubes (Becton Dickinson, #352070), and centrifuged (2,000 rpm, 10 min., 4° C.) by a reduced performance centrifuge (TOMY, RL-101). The supernatant was disposed, and the pellets in the four tubes were each suspended with 10 ml EDTA/PBS(−) and collected into one tube (Becton Dickinson, #352070). The pellet was further centrifuged (2,000 rpm, 10 min., 4° C.). The resultant pellet was suspended with 20 ml ice-cooled homogenizer buffer [10 mM NaHCO3, 2 mM EGTA, 0.2 mM magnesium acetate, 10 μg/ml Leupeptin (Peptide Institute, Inc., #4041), 10 μg/ml E-64 (Peptide Institute, Inc., # 4096), 100 μg/ml o-phenanthroline (Dojindo Laboratories), 90 μg/ml PMSF (Wako Pure Chemical Industries, Ltd.), 10 μg/ml Pepstatin A (Peptide Institute, Inc., #4397), pH7.3]. The cell suspension was homogenized 3 times, each for 30 seconds, using a Polytron homogenizer. The resultant homogenate was centrifuged (2,500 rpm, 10 min, 4° C.) using a high performance refrigerated centrifuge (Hitachi, Ltd., CR26H). The supernatant was recovered into a super-centrifuge tube, and super-centrifuged (30,000 rpm, 60 min, 4° C.) using a super-centrifuge (Hitachi, Ltd., SCP70H). 3 ml homogenizer buffer was added to the resultant pellet, and the pellet was suspended by pipetting. 3 ml glycerol (Wako Pure Chemical Industries, Ltd.) was added to the resultant suspension and diluted 2-folds. The resultant substance was used as a cell membrane fraction of the h175 KB34 cells. Each […] of the membrane fraction was put into a 1.5 ml tube (Eppendorf, #0030120.086), stored in a freezer (−30 C) so as not to be frozen, and used for a binding assay.
An assay buffer was prepared on the day of the test by adding, to each 100 ml of an assay basic buffer [20 mM Tris, 2.5 mM Magnesium Acetate, 2 mM EGTA, pH 7.4], 1 mg Leupeptin (Peptide Institute, Inc., 4041), 1 mg E-64 (Peptide Institute, Inc., 4096), 10 mg o-phenanthroline (Dojindo Laboratories), 9 mg PMSF (Wako Pure Chemical Industries, Ltd.) and 1 mg Pepstatin A (Peptide Institute, Inc., 4397). The prepared assay buffer was stored at 4° C. until being used. When the measurement was to be performed with no BSA, the above-described assay buffer was used. […]

Molecules are shown by their SMILES.

T1 sequence (Q969F8 whole entry L364H): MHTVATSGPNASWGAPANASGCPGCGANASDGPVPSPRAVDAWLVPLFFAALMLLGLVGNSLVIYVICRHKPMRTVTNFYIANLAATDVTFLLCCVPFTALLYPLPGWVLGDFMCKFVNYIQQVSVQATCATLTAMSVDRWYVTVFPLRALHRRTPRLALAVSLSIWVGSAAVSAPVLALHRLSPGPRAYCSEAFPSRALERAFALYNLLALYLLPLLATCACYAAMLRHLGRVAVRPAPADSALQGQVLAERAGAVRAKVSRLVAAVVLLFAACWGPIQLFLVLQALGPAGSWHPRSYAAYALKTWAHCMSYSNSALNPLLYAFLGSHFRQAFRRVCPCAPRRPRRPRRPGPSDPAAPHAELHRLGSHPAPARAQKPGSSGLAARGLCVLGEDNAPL

Usually IC50 stands for the midpoint of a concentration-inhibition curve. Broadly, the melting point is the temperature, or range, at which the solid turns liquid. Turning to `COc1ccccc1C(=O)Nc1nc(-c2ccc(Cl)cc2O)cc(-c2cccc(C(=O)NCC3CCCCN3)c2)c1C#N.Cl` (stereo not shown) [Example 71, N-[6-(4-chloro-2-hydroxyphenyl)-3-cyano-4-(3-{[(piperidine-2-ylmethyl)amino]carbonyl}phenyl)pyridin-2-yl]-2-methoxybenzamide hydrochloride], the melting point was 210 to 217 °C. The IC50 in data set [1] is at most 10 µM.
The matching figures for `CCN(CC)CCNC(=O)c1cccc(-c2cc(-c3ccc(F)cc3O)nc(NC(=O)c3ccco3)c2C#N)c1.Cl` [Example 310, N-[3-cyano-4-[3-({[2-(diethylamino)ethyl]amino}carbonyl)phenyl]-6-(4-fluoro-2-hydroxyphenyl)pyridin-2-yl]-2-furamide hydrochloride]: 200 to 204 °C and at most 10 µM.
In the same order, the values of `N#Cc1c(-c2cccc(CNC(=N)N)c2)cc(-c2ccccc2O)nc1NC(=O)c1cccs1.O=C(O)C(F)(F)F` [Example 45, N-{4-[3-({[amino(imino)methyl]amino}methyl)phenyl]-3-cyano-6-(2-hydroxyphenyl)pyridin-2-yl}thiophene-2-carboxamide trifluoroacetate] are 144 to 151 °C and at most 10 µM.
Consider `Cl.N#Cc1c(-c2cccc(NC(=O)[C@@H]3CCCC[C@@H]3N)c2)cc(-c2ccc(F)cc2O)nc1NC(=O)c1ccco1` (racemic) [Example 267, N-{4-[3-({[(1SR,2RS)-2-aminocyclohexyl]carbonyl}amino)phenyl]-3-cyano-6-(4-fluoro-2-hydroxyphenyl)pyridin-2-yl}-2-furamide hydrochloride], for which the melting point fell in the range of 224 to 225 °C. Moreover, the IC50 in data set [1] is at most 10 µM.
The matching figures for `CN1CCN(c2cccc(-c3cc(-c4ccc(F)cc4O)nc(NC(=O)c4ccco4)c3C#N)c2)CC1.Cl` [Example 327, N-{3-cyano-6-(4-fluoro-2-hydroxyphenyl)-4-[3-(4-methylpiperazin-1-yl)phenyl]pyridin-2-yl}-2-furamide hydrochloride]: 254 to 259 °C and at most 10 µM.
The matching figures for `Cc1ccc(C(=O)Nc2nc(-c3ccc(Cl)cc3O)cc(-c3cccc(NC(=O)CC(C)N)c3)c2C#N)o1.Cl` (stereo not shown) [Example 271, N-[4-{3-[(3-aminobutanoyl)amino]phenyl}-6-(4-chloro-2-hydroxyphenyl)-3-cyanopyridin-2-yl]-5-methyl-2-furamide hydrochloride]: 206 to 212 °C and at most 10 µM.
In the same order, the values of `Cl.N#Cc1c(-c2cccc(C(=O)N[C@@H]3CCCC[C@H]3N)c2)cc(-c2ccc(F)cc2O)nc1NC(=O)c1ccco1` (racemic) [Example 289, N-{4-[3-({[(1SR,2SR)-2-aminocyclohexyl]amino}carbonyl)phenyl]-3-cyano-6-(4-fluoro-2-hydroxyphenyl)pyridin-2-yl}-2-furamide hydrochloride] are 285 to 288 °C and at most 10 µM.
`Cl.N#Cc1c(-c2cccc(NC(=O)CCN)c2)cc(-c2ccc(Cl)cc2O)nc1NC(=O)c1ccco1` [Example 63, N-{4-[3-(β-alanylamino)phenyl]-6-(4-chloro-2-hydroxyphenyl)-3-cyanopyridin-2-yl}-2-furamide hydrochloride]: the melting point fell in the range of 206 to 212 °C. Besides, in data set [1], the IC50 is at most 10 µM.
The matching figures for `Cl.N#Cc1c(-c2cccc(C(=O)NC3CCNCC3)c2)cc(-c2ccccc2O)nc1NC(=O)c1cccs1` [Example 7, N-(3-cyano-6-(2-hydroxyphenyl)-4-{3-[(piperidin-4-ylamino)carbonyl]phenyl}pyridin-2-yl)thiophene-2-carboxamide hydrochloride]: 254 to 256 °C and at most 10 µM.
In the same order, the values of `C[C@H](N)CC(=O)Nc1cccc(-c2cc(-c3ccc(Cl)cc3O)nc(NC(=O)c3nccs3)c2C#N)c1.Cl` [Example 269, N-[4-(3-{[(3S)-3-aminobutanoyl]amino}phenyl)-6-(4-chloro-2-hydroxyphenyl)-3-cyanopyridin-2-yl]-1,3-thiazole-2-carboxamide hydrochloride] are 218 to 221 °C and at most 10 µM.
In the same order, the values of `Cl.N#Cc1c(-c2cccc(NC(=O)CCN)c2)cc(-c2ccc(Br)cc2O)nc1NC(=O)c1cccs1` [Example 61, N-{4-[3-(β-alanylamino)phenyl]-6-(4-bromo-2-hydroxyphenyl)-3-cyanopyridin-2-yl}thiophene-2-carboxamide hydrochloride] are 203 to 211 °C and at most 10 µM.
As for `Cl.N#Cc1c(-c2cccc(NC(=O)[C@@H]3CCCC[C@@H]3N)c2)cc(-c2ccc(F)cc2O)nc1NC(=O)c1ccco1` [Example 284, N-{4-[3-({[(1R,2S)-2-aminocyclohexyl]carbonyl}amino)phenyl]-3-cyano-6-(4-fluoro-2-hydroxyphenyl)pyridin-2-yl}-2-furamide hydrochloride], the melting point lay in the range of 220 to 223 °C. For the same compound, the IC50 in data set [1] is at most 10 µM.
Consider `COc1ccccc1C(=O)Nc1nc(-c2ccc(F)cc2O)cc(-c2cccc(C(=O)NCCN)c2)c1C#N.Cl` [Example 244, N-[4-(3-{[(2-aminoethyl)amino]carbonyl}phenyl)-3-cyano-6-(4-fluoro-2-hydroxyphenyl)pyridin-2-yl]-2-methoxybenzamide hydrochloride], for which the melting point lay within 227 to 229 °C. For the same compound, the IC50 in data set [1] is at most 10 µM.
In the same order, the values of `CCC(CC(=O)Nc1cccc(-c2cc(-c3ccc(F)cc3O)nc(NC(=O)c3ccco3)c2C#N)c1)N(CC)CC.Cl` (stereo not shown) [Example 319, N-[3-cyano-4-(3-{[3-(diethylamino)pentanoyl]amino}phenyl)-6-(4-fluoro-2-hydroxyphenyl)pyridin-2-yl]-2-furamide hydrochloride] are 171 to 175 °C and at most 10 µM.
Take `Cl.N#Cc1c(-c2cccc(NC(=O)[C@H](N)Cc3ccccc3)c2)cc(-c2ccc(F)cc2O)nc1NC(=O)c1ccco1` [Example 263, N-{3-[3-cyano-6-(4-fluoro-2-hydroxyphenyl)-2-(2-furoylamino)pyridin-4-yl]phenyl}-D-phenylalaninamide hydrochloride]: the melting point was in the range of 186 to 188 °C. The 50% inhibitory concentration (IC50) in data set [1] was at most 10 µM.
`CCN1CCCCC1CC(=O)Nc1cccc(-c2cc(-c3ccc(F)cc3O)nc(NC(=O)c3ccco3)c2C#N)c1.Cl` (stereo not shown) [Example 322, N-[3-cyano-4-(3-{[(1-ethylpiperidin-2-yl)acetyl]amino}phenyl)-6-(4-fluoro-2-hydroxyphenyl)pyridin-2-yl]-2-furamide hydrochloride] had a melting point of 201 to 203 °C. Further, the IC50 in data set [1] was at most 10 µM.
In turn, `C[C@@H](N)CC(=O)Nc1cccc(-c2cc(-c3ccc(Cl)cc3O)nc(NC(=O)c3nccs3)c2C#N)c1.Cl` [Example 270, N-[4-(3-{[(3R)-3-aminobutanoyl]amino}phenyl)-6-(4-chloro-2-hydroxyphenyl)-3-cyanopyridin-2-yl]-1,3-thiazole-2-carboxamide hydrochloride] displayed a melting point of 218 to 221 °C. Moreover, the IC50 in data set [1] is at most 10 µM.

The record behind these values is patent US20090156646A1, “PYRIDYLPHENOL COMPOUND AND USE THEREOF” (TAKEDA PHARMACEUTICAL COMPANY LIMITED, priority 2005, published 2009).
